In patent US8648092B2, “Imidazo[1,2-a]pyridine derivatives: preparation and pharmaceutical applications” (MEI Pharma, priority 2005, dated 2014):

Legend:
[1] = test system: Colo205 cells; experiment: Cell-based proliferation assay for determination of GI50 values (CyQUANT); parameters: species or system human; settings: Homo sapiens
Procedure: Cell-Based Proliferation Assay for Determination of GI50 Values
Human cancer cell lines (e.g. Colo205) were obtained from ATCC. Colo205 cells were cultivated in RPMI 1640 containing 2 mM L-Glutamine, 5% FBS, 1.0 mM Na Pyruvate. Colo205 cells were seeded in 96-wells plate at 5000 cells per well. The plates were incubated at 37° C., 5% CO2, for 24 h. Cells were treated with compounds at various concentrations for 96 h. Cell growth was then monitored using CyQUANT® cell proliferation assay (Invitrogen Pte Ltd). Dose response curves were plotted to determine GI50 values for the compounds using XL-fit (ID Business Solution, Emeryville, Calif.). GI50 is defined as the concentration of compound required for 50% inhibition of cell growth.
The cellular or growth inhibition activity results of representative compounds are shown in Table 4 below (unit in the table is micromolar).

[2] = target: HDAC1 enzyme (recombinant GST-HDAC1) (Homo sapiens (Human), UniProt Q13547); experiment: In vitro HDAC assay for determination of IC50 values (BIOMOL fluorescent-based HDAC activity assay); format: biochemical; settings: Flur de lys substrate, 2 h room temperature, read-out: IC50 (HDAC 1)
Procedure: Biological Testing and Enzyme Assays Recombinant GST-HDAC1 Protein Expression and Purification
Human cDNA library was prepared using cultured SW620 cells. Amplification of human HDAC1 coding region from this cDNA library was cloned separately into the baculovirus expression pDEST20 vector (GATEWAY Cloning Technology, Invitrogen Pte Ltd). The pDEST20-HDAC1 construct was confirmed by DNA sequencing. Recombinant baculovirus was prepared using the Bac-To-Bac method following the manufacturer's instruction (Invitrogen Pte Ltd).
Expression of GST-HDAC1 was done by infecting SF9 cells (Invitrogen Pte Ltd) with pDEST20-HDAC1 baculovirus at MOI=1 for 48 h. Soluble cell lysate was incubated with pre-equilibrated Glutathione Sepharose 4B beads (Amersham) at 4° C. for 2 h. The beads were washed with PBS buffer for 3 times. The GST-HDAC1 protein was eluted by elution buffer containing 50 mM Tris, pH8.0, 150 mM NaCl, 1% Triton X-100 and 10 mM or 20 mM reduced Glutathione. The purified GST-HDAC1 protein was dialyzed with HDAC storage buffer containing 10 mM Tris, pH7.5, 100 mM NaCl and 3 mM MgCl2. 20% Glycerol was added to purified GST-HDAC1 protein before storage at −80° C.
In Vitro HDAC Assay for Determination of IC50 Values
The assay has been carried out in 96 well format and the BIOMOL fluorescent-based HDAC activity assay has been applied. […] Flur de lys Developer was added and the reaction was incubated for 10 min. Briefly, deacetylation of the substrate sensitizes it to the developer, which then generates a fluorophore. The fluorophore is excited with 360 nm light and the emitted light (460 nm) is detected on a fluorometric plate reader (Tecan Ultra Microplate detection system, Tecan Group Ltd.).
The analytical software, Prism 4.0 (GraphPad Software Inc) has been used to generate IC50 from a series of data.

HDAC1 enzyme (recombinant GST-HDAC1), sequence (Q13547 whole entry): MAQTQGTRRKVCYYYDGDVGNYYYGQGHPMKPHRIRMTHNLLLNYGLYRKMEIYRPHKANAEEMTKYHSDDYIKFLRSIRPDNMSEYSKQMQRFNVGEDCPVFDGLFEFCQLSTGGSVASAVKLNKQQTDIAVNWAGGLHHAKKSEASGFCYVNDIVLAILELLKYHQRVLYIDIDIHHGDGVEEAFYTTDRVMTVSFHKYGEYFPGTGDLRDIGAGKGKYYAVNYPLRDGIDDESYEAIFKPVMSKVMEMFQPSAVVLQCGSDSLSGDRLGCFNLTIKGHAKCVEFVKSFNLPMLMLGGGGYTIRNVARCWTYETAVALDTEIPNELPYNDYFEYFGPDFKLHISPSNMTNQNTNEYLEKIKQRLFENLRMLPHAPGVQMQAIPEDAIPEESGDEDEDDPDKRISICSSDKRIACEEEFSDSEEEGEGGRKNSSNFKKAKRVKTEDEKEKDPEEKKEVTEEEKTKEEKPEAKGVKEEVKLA

Structure (SMILES)	GI50 ([1]; COLO 205, 96 h treatment) [µM]	IC50 [2] [µM]	GI50 ([1]; COLO 205, 96 h, 96 h treatment) [µM]
COc1cc(Nc2c(CCc3ccccc3)nc3ccc(/C=C/C(=O)NO)cn23)cc(OC)c1OC [Compound 1, N-Hydroxy-3-[2-phenethyl-3-(3,4,5-trimethoxy-phenylamino)-imidazo[1,2-a]pyridin-6-yl]-acrylamide]	2.1	0.15	–
O=C(C=Cc1ccc2nc(CCc3ccccc3)c(NCc3ccc4c(c3)OCO4)n2c1)NO [Compound 2, 3-{3-[(Benzo[1,3]-dioxol-5-ylmethyl)-amino]-2-phenethyl-imidazo[1,2-a]pyridin-6-yl}-N-hydroxyacrylamide]	3.9	0.72	–
O=C(/C=C/c1ccc2nc(CCc3ccccc3)c(Nc3ccc(N4CCCCC4)cc3)n2c1)NO [Compound 3, N-Hydroxy-3-[2-phenethyl-3-(4-piperidin-1-yl-phenylamino)-imidazo[1,2-a]pyridin-6-yl]-acrylamide]	1.9	0.79	–
O=C(/C=C/c1ccc2nc(CCc3ccccc3)c(Nc3ccc4c(c3)OCO4)n2c1)NO [Compound 4, 3-[3-(Benzo[1,3]-dioxol-5-ylamino)-2-phenethyl-imidazo[1,2-a]pyridin-6-yl]-N-hydroxy-acrylamide]	2.8	0.64	–
COCCNc1c(CCc2ccccc2)nc2ccc(/C=C/C(=O)NO)cn12 [Compound 5, N-Hydroxy-3-[3-(2-methoxy-ethylamino)-2-phenethyl-imidazo[1,2-a]pyridin-6-yl]-acrylamide]	27	0.35	–
O=C(/C=C/c1ccc2nc(CCc3ccccc3)c(NC3CCCCC3)n2c1)NO [Compound 6, 3-(3-Cyclohexylamino-2-phenethyl-imidazo[1,2-a]pyridin-6-yl)-N-hydroxy-acrylamide]	42	1.4	–
COCCNc1c(C(C)C)nc2ccc(/C=C/C(=O)NO)cn12 [Compound 7, N-Hydroxy-3-[2-isopropyl-3-(2-methoxy-ethylamino)-imidazo[1,2-a]pyridin-6-yl]-acrylamide]	9.3	2.7	–
COCCNc1c(CC(C)(C)C)nc2ccc(/C=C/C(=O)NO)cn12 [Compound 8, 3-[2-(2,2-Dimethyl-propyl)-3-(2-methoxy-ethylamino)-imidazo[1,2-a]pyridin-6-yl]-N-hydroxy-acrylamide]	14	1	–
CCCCCc1nc2ccc(/C=C/C(=O)NO)cn2c1NCCOC [Compound 9, N-Hydroxy-3-[3-(2-methoxy-ethylamino)-2-pentyl-imidazo[1,2-a]pyridin-6-yl]-acrylamide]	5.3	1.3	–
COCCNc1c(CCC(=O)O)nc2ccc(/C=C/C(=O)NO)cn12 [Compound 10, 3-[6-(2-Hydroxycarbamoyl-vinyl)-3-(2-methoxy-ethylamino)-imidazo[1,2-a]pyridin-2-yl]-propionic acid]	39	–	–
CCc1nc2ccc(/C=C/C(=O)NO)cn2c1NCCOC [Compound 11, 3-[2-Ethyl-3-(2-methoxy-ethylamino)-imidazo[1,2-a]pyridin-6-yl]-N-hydroxy-acrylamide]	> 10	6	–
CC(C)(C)Nc1c(C(=O)O)nc2ccc(/C=C/C(=O)NO)cn12 [Compound 12, 3-tert-Butylamino-6-(2-hydroxycarbamoyl-vinyl)-imidazo[1,2-a]pyridine-2-carboxylic acid]	20	–	–
CCCCNc1c(CCCC)nc2ccc(/C=C/C(=O)NO)cn12 [Compound 13, 3-(2-Butyl-3-butylamino-imidazo[1,2-a]pyridin-6-yl)-N-hydroxy-acrylamide]	8.9	0.72	–
CC(C)Nc1c(C(C)C)nc2ccc(/C=C/C(=O)NO)cn12 [Compound 14, N-Hydroxy-3-(2-isopropyl-3-isopropylamino-imidazo[1,2-a]pyridin-6-yl)-acrylamide]	9.2	2.7	–
COCCNc1c(CC(C)CC(C)(C)C)nc2ccc(/C=C/C(=O)NO)cn12 (stereo not shown) [Compound 15, (E)-N-hydroxy-3-(3-(2-methoxyethylamino)-2-(2,4,4-trimethylpentyl)imidazo[1,2-a]pyridin-6-yl)acrylamide]	16	0.76	–
COCCNc1c(CC(C)CC(C)(C)C)nc2c(/C=C/C(=O)NO)cccn12 (stereo not shown) [Compound 16, (E)-N-hydroxy-3-(3-(2-methoxyethylamino)-2-(2,4,4-trimethylpentyl)imidazo[1,2-a]pyridin-8-yl)acrylamide]	20	> 10	–
CCCCCc1nc2cc(/C=C/C(=O)NO)ccn2c1NCCOC [Compound 17, (E)-N-hydroxy-3-(3-(2-methoxyethylamino)-2-pentylimidazo[1,2-a]pyridin-7-yl)acrylamide]	9.9	0.3	–
CCCCCCc1nc2ccc(/C=C/C(=O)NO)cn2c1NCCC(=O)NCC [Compound 18, (E)-3-(3-(3-(ethylamino)-3-oxopropylamino)-2-hexylimidazo[1,2-a]pyridin-6-yl)-N-hydroxyacrylamide]	12	0.63	–
CCCCCCc1nc2ccc(/C=C/C(=O)NO)cn2c1NCCC(=O)NCCN(C)C [Compound 19, (E)-3-(3-(3-(2-(dimethylamino)ethylamino)-3-oxopropylamino)-2-hexylimidazo[1,2-a]pyridin-6-yl)-N-hydroxyacrylamide]	24	0.78	–
CCCCCCc1nc2cc(/C=C/C(=O)NO)ccn2c1NCCC(=O)N(C)CC#N [Compound 31, 3-{3-[2-(Cyanomethyl-methyl-carbamoyl)-ethylamino]-2-hexyl-imidazo[1,2-a]pyridin-7-yl}-N-hydroxy-acrylamide]	1.9	–	–
CCC(CC)NCc1c(C(C)(C)C)nc2cc(C=CC(=O)NO)ccn12 [Compound 68, 3-{2-tert-Butyl-3-[(1-ethyl-propylamino)-methyl]-imidazo[1,2-a]pyridin-7-yl}-N-hydroxy-acrylamide]	–	–	1.5
CCCCN(CCCC)Cc1c(C)nc2cc(/C=C/C(=O)NO)ccn12 [Compound 81, 3-(3-Dibutylaminomethyl-2-methyl-imidazo[1,2-a]pyridin-7-yl)-N-hydroxy-acrylamide]	0.8	–	–
CCC(C)CN(CC)Cc1c(C(C)(C)C)nc2cc(/C=C/C(=O)NO)ccn12 (stereo not shown) [Compound 88, 3-(2-tert-Butyl-3-{[ethyl-(2-methyl-butyl)-amino]-methyl}-imidazo[1,2-a]pyridin-7-yl)-N-hydroxy-acrylamide]	2.2	–	–
CCCCCCCN(CC)Cc1c(C(C)(C)C)nc2cc(/C=C/C(=O)NO)ccn12 [Compound 94, 3-{2-tert-Butyl-3-[(ethyl-heptyl-amino)-methyl]-imidazo[1,2-a]pyridin-7-yl}-N-hydroxy-acrylamide]	–	–	2.7
CCCCc1nc2cc(/C=C/C(=O)NO)ccn2c1CN(CC)CC(C)CCC (stereo not shown) [Compound 113, 3-(2-Butyl-3-{[ethyl-(2-methyl-pentyl)-amino]-methyl}-imidazo[1,2-a]pyridin-7-yl)-N-hydroxy-acrylamide]	–	–	0.37
CCN(CCC(C)C)Cc1c(C)nc2cc(/C=C/C(=O)NO)ccn12 [Compound 124, 3-(3-{[Ethyl-(3-methyl-butyl)-amino]-methyl}-2-methyl-imidazo[1,2a]pyridin-7-yl)-N-hydroxy-acrylamide]	0.11	–	–
CCN(CCC(C)C)Cc1c(CC(C)C)nc2cc(/C=C/C(=O)NO)ccn12 [Compound 135, 3-(3-{[Ethyl-(3-methyl-butyl)-amino]-methyl}-2-isobutyl-imidazo[1,2-a]pyridin-7-yl)-N-hydroxy-acrylamide]	0.15	–	–
CCN(CCC(C)(C)C)Cc1c(CC(C)C)nc2cc(/C=C/C(=O)NO)ccn12 [Compound 136, 3-(3-{[(3,3-Dimethyl-butyl)-ethyl-amino]-methyl}-2-isobutyl-imidazo[1,2-a]pyridin-7-yl)-N-hydroxy-acrylamide]	0.17	–	–
CCN(CCC(C)C)Cc1c(CCC(C)C)nc2cc(/C=C/C(=O)NO)ccn12 [Compound 142, 3-[3-{[Ethyl-(3-methyl-butyl)-amino]-methyl}-2-(3-methyl-butyl)-imidazo[1,2-a]pyridin-7-yl]-N-hydroxy-acrylamide]	0.13	–	–
